From US9624214B2, “Amino-substituted imidazo[1,2-a]pyridinecarboxamides and their use” (BAYER PHARMA AKTIENGESELLSCHAFT, priority 2012, dated 2017)

The compounds below were run against T1, recombinant guanylate cyclase reporter cell line (Rattus norvegicus, UniProt P19686+P20595) (assay: B-2. Action on recombinant guanylate cyclase reporter cell line). Conditions: MEC = minimal effective concentration; in some cases mean values from individual determinations.
T1 construct: expressed in transfected cells
T1 sequence (P20595 1-619): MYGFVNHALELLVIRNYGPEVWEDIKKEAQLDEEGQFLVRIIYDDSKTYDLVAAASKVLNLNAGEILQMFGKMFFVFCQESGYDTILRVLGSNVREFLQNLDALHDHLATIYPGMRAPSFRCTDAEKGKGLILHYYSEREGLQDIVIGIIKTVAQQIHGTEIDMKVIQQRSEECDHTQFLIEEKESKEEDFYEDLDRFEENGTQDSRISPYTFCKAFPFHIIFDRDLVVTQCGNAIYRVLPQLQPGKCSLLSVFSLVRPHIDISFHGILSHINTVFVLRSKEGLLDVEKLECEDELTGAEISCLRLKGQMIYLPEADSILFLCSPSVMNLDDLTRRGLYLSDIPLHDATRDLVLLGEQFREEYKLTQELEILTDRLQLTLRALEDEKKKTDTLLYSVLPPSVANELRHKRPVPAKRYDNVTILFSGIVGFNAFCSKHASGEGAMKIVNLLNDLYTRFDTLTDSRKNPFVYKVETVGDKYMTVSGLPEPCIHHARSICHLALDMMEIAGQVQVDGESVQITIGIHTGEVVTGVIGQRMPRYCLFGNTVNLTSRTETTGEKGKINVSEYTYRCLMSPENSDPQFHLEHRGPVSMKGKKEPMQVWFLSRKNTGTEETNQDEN
T1 sequence (P19686 1-690): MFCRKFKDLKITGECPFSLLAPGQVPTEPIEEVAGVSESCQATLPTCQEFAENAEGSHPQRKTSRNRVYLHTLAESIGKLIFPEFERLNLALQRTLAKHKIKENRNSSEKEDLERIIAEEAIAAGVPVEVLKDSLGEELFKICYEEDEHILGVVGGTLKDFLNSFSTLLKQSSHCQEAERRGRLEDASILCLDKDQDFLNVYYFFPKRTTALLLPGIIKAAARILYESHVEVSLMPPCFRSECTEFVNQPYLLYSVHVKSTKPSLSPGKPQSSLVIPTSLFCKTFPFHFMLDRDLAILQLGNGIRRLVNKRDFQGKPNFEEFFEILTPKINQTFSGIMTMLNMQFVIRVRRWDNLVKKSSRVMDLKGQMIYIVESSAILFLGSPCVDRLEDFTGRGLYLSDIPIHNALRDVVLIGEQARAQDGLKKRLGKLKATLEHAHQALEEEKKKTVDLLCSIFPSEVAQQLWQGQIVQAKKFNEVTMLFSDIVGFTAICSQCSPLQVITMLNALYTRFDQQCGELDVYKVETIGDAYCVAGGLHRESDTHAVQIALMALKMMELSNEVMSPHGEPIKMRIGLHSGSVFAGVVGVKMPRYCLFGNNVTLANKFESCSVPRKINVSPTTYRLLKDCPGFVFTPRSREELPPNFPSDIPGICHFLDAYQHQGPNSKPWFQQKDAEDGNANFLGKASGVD
Format: cell-based
Procedure, shortened: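 Each compound is applied to a cell line engineered with a reporter for recombinant guanylate cyclase. The minimal effective concentration is then noted, in part as a mean across separate determinations.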

Row | SMILES | MEC [µM]
1 | Cc1nc2c(OCc3c(F)cccc3F)cc(C(F)F)cn2c1C(=O)NCC(C)(N)CF (single isomer, unassigned; enantiomer b) [Example 292, ent-N-(2-amino-3-fluoro-2-methylpropyl)-8-[(2,6-difluorobenzyl)oxy]-6-(difluoromethyl)-2-methylimidazo[1,2-a]pyridine-3-carboxamide (Enantiomer B)] | 0.03
2 | Cc1cc(OCc2c(F)cccc2F)c2nc(C)c(C(=O)NC3CCC3N)n2c1 (single isomer, unassigned; enantiomer b) [Example 329, ent-N-(2-aminocyclobutyl)-8-[(2,6-difluorobenzyl)oxy]-2,6-dimethylimidazo[1,2-a]pyridine-3-carboxamide (Enantiomer B)] | 0.30
3 | Cc1cc(OCc2c(F)cccc2F)c2nc(C)c(C(=O)NC3CCC3(C)N)n2c1 (single isomer, unassigned; enantiomer b) [Example 333, ent-N-[2-amino-2-methylcyclobutyl]-8-[(2,6-difluorobenzyl)oxy]-2,6-dimethylimidazo[1,2-a]pyridine-3-carboxamide (Enantiomer B)] | 1.00
4 | Cc1cc(OCc2c(F)cccc2F)c2nc(C)c(C(=O)NC3(C)CCC3(C)N)n2c1 (single isomer, unassigned; enantiomer b) [Example 337, ent-N-[(2-amino-1,2-dimethylcyclobutyl]-8-[(2,6-difluorobenzyl)oxy]-2,6-dimethylimidazo[1,2-a]pyridine-3-carboxamide (Enantiomer B)] | 0.55
5 | Cc1cc(OCc2c(F)cccc2F)c2nc(C)c(C(=O)NCC(N)C#N)n2c1 (single isomer, unassigned; enantiomer b) [Example 402, ent-N-(2-amino-2-cyanoethyl)-8-[(2,6-difluorobenzyl)oxy]-2,6-dimethylimidazo[1,2-a]pyridine-3-carboxamide (Enantiomer B)] | 0.30
6 | Cc1cc(OCc2c(F)cccc2F)c2nc(C)c(C(=O)NCC(C)(N)CCC(F)(F)F)n2c1 (single isomer, unassigned; enantiomer b) [Example 409, ent-N-(2-amino-5,5,5-trifluoro-2-methylpentyl)-8-[(2,6-difluorobenzyl)oxy]-2,6-dimethylimidazo[1,2-a]pyridine-3-carboxamide (Enantiomer B)] | 0.03
7 | Cc1cc(OCc2c(F)ccc(F)c2F)c2nc(C)c(C(=O)NCC(C)(N)CCC(F)(F)F)n2c1 (single isomer, unassigned; enantiomer b) [Example 411, ent-N-(2-amino-5,5,5-trifluoro-2-methylpentyl)-2,6-dimethyl-8-[(2,3,6-trifluorobenzyl)oxy]imidazo[1,2-a]pyridine-3-carboxamide (Enantiomer B)] | 0.03
8 | Cc1nc2c(OCc3c(F)cccc3F)cc(Cl)cn2c1C(=O)NC1CNCc2ccccc21 (single isomer, unassigned; ent-6) [Example 107, ent-6-chloro-8-[(2,6-difluorobenzyl)oxy]-2-methyl-N-(1,2,3,4-tetrahydroisoquinolin-4-yl)imidazo[1,2-a]pyridine-3-carboxamide] | 0.30
9 | Cc1nc2c(OCc3c(F)cccc3F)cc(Cl)cn2c1C(=O)NC1CNCc2ccccc21 (single isomer, unassigned; ent-6) [Example 108, ent-6-chloro-8-[(2,6-difluorobenzyl)oxy]-2-methyl-N-(1,2,3,4-tetrahydroisoquinolin-4-yl)imidazo[1,2-a]pyridine-3-carboxamide] | 1.00
10 | Cc1nc2c(OCc3c(F)cccc3F)cc(Cl)cn2c1C(=O)NCC1CCCCN1 (single isomer, unassigned; ent-6) [Example 190, ent-6-Chloro-8-[(2,6-difluorobenzyl)oxy]-2-methyl-N-(piperidin-2-ylmethyl)imidazo[1,2-a]-pyridine-3-carboxamide] | 1.00
11 | Cc1nc2c(OCc3c(F)cccc3F)cc(Cl)cn2c1C(=O)NCC1CCCCN1 (single isomer, unassigned; ent-6) [Example 191, ent-6-Chloro-8-[(2,6-difluorobenzyl)oxy]-2-methyl-N-(piperidin-2-ylmethyl)imidazo[1,2-a]-pyridine-3-carboxamide] | 1.00
12 | Cc1nc2c(OCc3c(F)cccc3F)cccn2c1C(=O)NC1CNc2ccccc21 (single isomer, unassigned; ent-8) [Example 47, ent-8-[(2,6-Difluorobenzyl)oxy]-N-(2,3-dihydro-1H-indol-3-yl)-2-methylimidazo[1,2-a]pyridine-3-carboxamide] | 0.30
13 | Cc1nc2c(OCc3c(F)cccc3F)cccn2c1C(=O)NC1CCNc2ccccc21 (single isomer, unassigned; ent-8) [Example 52, ent-8-[(2,6-Difluorobenzyl)oxy]-2-methyl-N-(1,2,3,4-tetrahydroquinolin-4-yl)imidazo[1,2-a]-pyridine-3-carboxamide] | 0.03
14 | Cc1nc2c(OCc3c(F)cccc3F)cccn2c1C(=O)NC1CNc2ccccc2C1 (single isomer, unassigned; ent-8) [Example 81, ent-8-[(2,6-Difluorobenzyl)oxy]-2-methyl-N-(1,2,3,4-tetrahydroquinolin-3-yl)imidazo[1,2-a]-pyridine-3-carboxamide] | 1.00
15 | Cc1nc2c(OCc3c(F)cccc3F)cccn2c1C(=O)NC1CCNc2ccc(F)cc21 (single isomer, unassigned; ent-8) [Example 105, ent-8-[(2,6-difluorobenzyl)oxy]-N-(6-fluoro-1,2,3,4-tetrahydroquinolin-4-yl)-2-methylimidazo[1,2-a] pyridine-3-carboxamide] | 0.30
16 | Cc1nc2c(OCc3c(F)cccc3F)cccn2c1C(=O)NC1CCNc2ccc(F)cc21 (single isomer, unassigned; ent-8) [Example 106, ent-8-[(2,6-difluorobenzyl)oxy]-N-(6-fluoro-1,2,3,4-tetrahydroquinolin-4-yl)-2-methylimidazo[1,2-a] pyridine-3-carboxamide] | 0.03
17 | Cc1nc2c(OCc3c(F)cccc3F)cccn2c1C(=O)NC1CNCc2ccccc21 (single isomer, unassigned; ent-8) [Example 109, ent-8-[(2,6-difluorobenzyl)oxy]-2-methyl-N-(1,2,3,4-tetrahydroisoquinolin-4-yl)imidazo[1,2-a]pyridine-3-carboxamide] | 1.00
18 | Cc1nc2c(OCc3c(F)cccc3F)cccn2c1C(=O)NC1CNCc2ccccc21 (single isomer, unassigned; ent-8) [Example 110, ent-8-[(2,6-difluorobenzyl)oxy]-2-methyl-N-(1,2,3,4-tetrahydroisoquinolin-4-yl)imidazo[1,2-a]pyridine-3-carboxamide] | 0.30
19 | Cc1nc2c(OCc3c(F)cccc3F)cccn2c1C(=O)NC1CCNc2ccc(C(F)(F)F)cc21 (single isomer, unassigned; ent-8) [Example 111, ent-8-[(2,6-difluorobenzyl)oxy]-2-methyl-N-[6-(trifluoromethyl)-1,2,3,4-tetrahydroquinolin-4-yl]imidazo[1,2-a]pyridine-3-carboxamide] | 1.00
20 | Cc1nc2c(OCc3c(F)cccc3F)cccn2c1C(=O)NC1CCNc2ccc(C(F)(F)F)cc21 (single isomer, unassigned; ent-8) [Example 112, ent-8-[(2,6-difluorobenzyl)oxy]-2-methyl-N-[6-(trifluoromethyl)-1,2,3,4-tetrahydroquinolin-4-yl]imidazo[1,2-a]pyridine-3-carboxamide] | 0.10
21 | Cc1nc2c(OCc3c(F)cccc3F)cccn2c1C(=O)NCC(C)N1CCOCC1 (single isomer, unassigned; ent-8) [Example 180, ent-8-[(2,6-Difluorobenzyl)oxy]-2-methyl-N-[2-(morpholin-4-yl)propyl]imidazo[1,2-a]pyridine-3-carboxamide] | 1.00
22 | Cc1nc2c(OCc3c(F)cccc3F)cccn2c1C(=O)NCC(C)N1CCOCC1 (single isomer, unassigned; ent-8) [Example 181, ent-8-[(2,6-Difluorobenzyl)oxy]-2-methyl-N-[2-(morpholin-4-yl)propyl]imidazo[1,2-a]pyridine-3-carboxamide] | 1.00
